Source: ChEMBL document CHEMBL1817595, “Design, synthesis, biological evaluation and X-ray crystal structure of novel classical 6,5,6-tricyclic benzo[4,5]thieno[2,3-d]pyrimidines as dual thymidylate synthase and dihydrofolate reductase inhibitors” (Bioorg Med Chem, 2011)

Experiments:
[1] = molecular target: T1, Bifunctional dihydrofolate reductase-thymidylate synthase (Toxoplasma gondii, UniProt Q07422); assay: Inhibition of Toxoplasma gondii TS assessed as oxidation of tetrahydrofolate to dihydrofolate after 2 to 12 mins by spectrophotometry
T1 sequence (Q07422 whole entry): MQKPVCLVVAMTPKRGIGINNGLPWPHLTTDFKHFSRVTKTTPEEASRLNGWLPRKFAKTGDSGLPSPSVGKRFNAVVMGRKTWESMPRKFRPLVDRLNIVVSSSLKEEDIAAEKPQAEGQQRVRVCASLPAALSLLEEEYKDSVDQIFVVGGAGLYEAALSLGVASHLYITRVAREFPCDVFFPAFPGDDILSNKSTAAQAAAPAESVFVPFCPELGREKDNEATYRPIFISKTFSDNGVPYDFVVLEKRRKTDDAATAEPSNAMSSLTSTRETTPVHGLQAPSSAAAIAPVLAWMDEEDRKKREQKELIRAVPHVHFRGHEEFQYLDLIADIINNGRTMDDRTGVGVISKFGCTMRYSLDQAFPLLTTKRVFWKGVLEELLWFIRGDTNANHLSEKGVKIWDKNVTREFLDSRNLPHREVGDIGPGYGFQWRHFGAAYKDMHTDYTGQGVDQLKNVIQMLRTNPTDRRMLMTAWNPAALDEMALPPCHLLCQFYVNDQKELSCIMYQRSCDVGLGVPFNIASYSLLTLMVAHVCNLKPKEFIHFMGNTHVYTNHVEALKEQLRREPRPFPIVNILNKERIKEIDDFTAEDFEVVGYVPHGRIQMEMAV

Dihydrofolate reductase [2] = molecular target: T2, Dihydrofolate reductase (Escherichia coli, UniProt P0ABQ4); assay: Inhibition of Escherichia coli DHFR by spectrophotometry
T2 sequence (P0ABQ4 whole entry): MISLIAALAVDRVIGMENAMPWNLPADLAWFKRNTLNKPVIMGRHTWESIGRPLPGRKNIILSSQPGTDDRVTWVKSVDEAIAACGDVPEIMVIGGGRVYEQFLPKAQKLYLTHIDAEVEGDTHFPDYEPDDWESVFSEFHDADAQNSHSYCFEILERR

[3] = molecular target: T1, Bifunctional dihydrofolate reductase-thymidylate synthase; assay: Inhibition of Toxoplasma gondii DHFR by spectrophotometry
[4] = molecular target: T3, Thymidylate synthase (EC 2.1.1.45) (TS) (TSase) (Escherichia coli, UniProt E2QDN0); assay: Inhibition of Escherichia coli TS assessed as oxidation of tetrahydrofolate to dihydrofolate after 2 to 12 mins by spectrophotometry
T3 sequence (E2QDN0 whole entry): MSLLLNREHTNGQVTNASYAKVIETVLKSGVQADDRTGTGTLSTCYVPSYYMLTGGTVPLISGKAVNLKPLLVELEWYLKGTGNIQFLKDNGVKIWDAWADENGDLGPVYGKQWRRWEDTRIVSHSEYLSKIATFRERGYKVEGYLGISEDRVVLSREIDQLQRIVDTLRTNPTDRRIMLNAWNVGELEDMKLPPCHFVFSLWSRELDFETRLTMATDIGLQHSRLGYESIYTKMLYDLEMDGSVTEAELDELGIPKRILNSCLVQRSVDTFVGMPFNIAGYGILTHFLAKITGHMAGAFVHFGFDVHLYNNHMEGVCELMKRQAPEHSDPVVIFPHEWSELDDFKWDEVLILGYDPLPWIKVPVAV

Dihydrofolate reductase [5] = molecular target: T4, Dihydrofolate reductase (Homo sapiens, UniProt P00374); assay: Inhibition of human DHFR by spectrophotometry
T4 sequence (P00374 whole entry): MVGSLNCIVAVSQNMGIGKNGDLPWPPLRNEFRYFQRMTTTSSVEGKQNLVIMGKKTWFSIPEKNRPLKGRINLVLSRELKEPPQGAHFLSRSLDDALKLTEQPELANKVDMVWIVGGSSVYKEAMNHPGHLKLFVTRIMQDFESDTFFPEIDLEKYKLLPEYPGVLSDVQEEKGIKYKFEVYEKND

Thymidylate synthase [6] = molecular target: T5, Thymidylate synthase (Homo sapiens, UniProt P04818); assay: Inhibition of human TS assessed as oxidation of tetrahydrofolate to dihydrofolate after 2 to 12 mins by spectrophotometry
Target sequence in this assay (P04818 whole entry): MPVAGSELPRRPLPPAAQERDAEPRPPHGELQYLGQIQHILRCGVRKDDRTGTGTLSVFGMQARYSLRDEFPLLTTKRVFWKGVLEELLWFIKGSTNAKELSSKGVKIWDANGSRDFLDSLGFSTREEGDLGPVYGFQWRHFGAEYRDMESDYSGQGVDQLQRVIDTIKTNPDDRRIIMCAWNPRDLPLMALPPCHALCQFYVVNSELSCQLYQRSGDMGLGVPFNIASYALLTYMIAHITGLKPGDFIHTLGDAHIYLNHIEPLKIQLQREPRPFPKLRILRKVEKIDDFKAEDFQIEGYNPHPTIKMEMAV

Thymidylate synthase [7] = molecular target: T5, Thymidylate synthase; assay: Ratio of premetrexed IC50 to compound IC50 for human TS
Target sequence in this assay (P04818 2-313 limits assumed): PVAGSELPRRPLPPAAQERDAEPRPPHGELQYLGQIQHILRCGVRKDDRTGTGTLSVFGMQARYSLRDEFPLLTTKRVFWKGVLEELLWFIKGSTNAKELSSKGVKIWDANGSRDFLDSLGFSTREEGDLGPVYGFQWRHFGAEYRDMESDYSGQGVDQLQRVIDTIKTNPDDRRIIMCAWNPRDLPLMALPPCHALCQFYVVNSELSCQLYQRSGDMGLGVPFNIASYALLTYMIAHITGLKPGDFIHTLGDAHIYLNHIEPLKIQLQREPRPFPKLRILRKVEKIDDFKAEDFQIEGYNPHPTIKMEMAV

SMILES | IC50 [1] [nM] | IC50 (Dihydrofolate reductase [2]) [nM] | IC50 [3] [nM] | IC50 [4] [nM] | IC50 (Dihydrofolate reductase [5]) [nM] | IC50 (Thymidylate synthase [6]) [nM] | Ratio IC50 (Thymidylate synthase [7])
Cc1[nH]c2nc(N)[nH]c(=O)c2c1Sc1ccc(C(=O)N[C@@H](CCC(=O)O)C(=O)O)cc1 | 90 | 22000 | 230 | – | – | – | –
Cc1nc2ccc3ccc(CNc4ccc5c(c4)CN([C@@H](CCC(=O)O)C(=O)O)C5=O)cc3c2c(=O)[nH]1 [OSI-7904] | 27 | 20000 | 710 | 23 | > 20000 | – | –
Cc1nc2sc3cccc(CNc4ccc(C(=O)N[C@@H](CCC(=O)O)C(=O)O)cc4)c3c2c(=O)[nH]1 | 1700 | 15000 | 1400 | 820 | > 20000 | 260 | 50
Cc1nc2sc3cccc(CNc4ccc5c(c4)CN([C@@H](CCC(=O)O)C(=O)O)C5=O)c3c2c(=O)[nH]1 | 3700 | > 20000 | 1800 | 850 | > 20000 | 800 | 50
Nc1nc2[nH]cc(CCc3ccc(C(=O)N[C@@H](CCC(=O)O)C(=O)O)cc3)c2c(=O)[nH]1 [PEMETREXED] | – | – | – | 76000 | – | – | –
Nc1nc2sc3cccc(CNc4ccc5c(c4)CN([C@@H](CCC(=O)O)C(=O)O)C5=O)c3c2c(=O)[nH]1 | 170 | 400 | 10 | 50 | 100 | 34 | 50
Nc1nc2sc3cccc(CNc4ccc(C(=O)N[C@@H](CCC(=O)O)C(=O)O)cc4)c3c2c(=O)[nH]1 | 140 | 400 | 20 | 17 | 90 | 68 | 50
